# Laboratory results published in US20160303113A1 (LAGUNA PHARMACEUTICALS ,INC., priority 2013, published 2016).
# Assays:
# [1] = healthy subjects; cited from earlier work
# [2] = Example 2: daily doses of vanoxerine for 11 consecutive days, PK and hemodynamics; type: in vivo, human
# [3] = Example 4: daily vanoxerine for 7 days; type: in vivo, human
# [4] = Example 3: daily vanoxerine for 14 days in healthy patients; type: in vivo, human
# Experimental: A standardized meal was served 15 minutes prior to each dosing.
# [5] = Pharmacokinetic parameters from tests in dogs; type: in vivo, dog
# Text: Vanoxerine is primarily eliminated from the body in urine, bile, and feces. Indeed, a substantial amount of the drug is expelled, unabsorbed into the feces. […] However, the long half-life of the drug may actually be utilized to minimize the continuous or regular dosing of the drug.
# [6] = test system: atrial fibrillation/atrial flutter; experiment: Example 6: placebo-controlled study of conversion of recent onset symptomatic AF/AFL to sinus rhythm; type: in vivo, human
# Experimental: The vanoxerine or identical appearing placebo was randomly assigned and administered in a double-blinded fashion.
# Definition of “pure” atrial flutter: only Atrial Flutter (no AF) seen at −30, −15, and 0 time points. Conversion at any time within 24 hours.
smiles,measurement,setting,value
"Fc1ccc(C(OCCN2CCN(CCCc3ccccc3)CC2)c2ccc(F)cc2)cc1 [Vanoxerine, 1-[2-[bis(4-fluorophenyl)methoxy]ethyl]-4-(3-phenylpropyl)piperazine]","effects at higher doses (concentration difficulties, increase systolic blood pressure, asthenia, feeling of drug influence)",[1],some effects were seen
same,steady state reached,"[2]; 50, 75 and 100 mg daily doses",≤ 8 days
same,plasma levels at 24 hours,"[2]; 50, 75 and 100 mg doses",detectable
same,systolic blood pressure and heart rate,[3]; 100 mg daily for 7 days,increases
same,systolic blood pressure and heart rate,[3]; 150 mg daily for 7 days,increases
same,Steady-state levels achieved,"[3]; 50, 100, 150 mg daily for 7 days, all patients",within one week
same,adverse events,"[4]; 25, 75, 125 mg daily for 14 days, healthy patients, after standardized meal",No significant adverse events
same,all patients achieved steady state after,"[4]; repetitive dosing, all patients",7 to 10 days
same,elimination from the plasma T112,[5],22 h
same,Adverse events: number of AEs reported,[6]; 200 mg (22),reporting 8 AEs
same,Adverse events: number of SAEs,[6]; 200 mg (22),(1 SAE)
same,"Adverse events: subjects reporting AEs, N (%)",[6]; 200 mg (22),4 (18%) subjects
same,Adverse events: number of AEs reported,[6]; 300 mg (25),reporting 12 AEs
same,"Adverse events: subjects reporting AEs, N (%)",[6]; 300 mg (25),7 (28%) subjects
same,Adverse events: number of AEs reported,[6]; 400 mg (25),reporting 23 AEs
same,Adverse events: number of SAEs,[6]; 400 mg (25),AEs (1 SAE)
same,"Adverse events: subjects reporting AEs, N (%)",[6]; 400 mg (25),10 (40%) subjects
same,tolerability,"[6]; all doses (200, 300, 400 mg)",well tolerated at all doses
same,"conversion to sinus rhythm of recent onset symptomatic AF/AFL, dose dependence","[6]; doses of 200, 300 and 400 mg",highly statistically significant dose dependent increase
same,relation of the two serious adverse events to study drug,"[6]; one at 200 mg (upper respiratory infection), one at 400 mg (lower extremity edema secondary to amlodipine)",neither related to the study drug
